A short description of this series: DVS mass change of crystalline 3,7-DKCA salts. The format is physicochemical.

As for `CC(C)NC(C)C.C[C@H](CCC(=O)O)[C@H]1CC[C@H]2[C@@H]3C(=O)C[C@@H]4CC(=O)CC[C@]4(C)[C@H]3CC[C@]12C` [Diisopropylamine salt, diisopropylamine salt of 3,7-DKCA], the “DVS mass change 5-95% RH (wt. %)” value is 2.53 wt. %. With `C[C@H](CCC(=O)O)[C@H]1CC[C@H]2[C@@H]3C(=O)C[C@@H]4CC(=O)CC[C@]4(C)[C@H]3CC[C@]12C.NCCN` [Ethylenediamine salt, ethylenediamine salt of 3,7-DKCA] the figure was 19.60 wt. %; with `CC(C)(C)N.C[C@H](CCC(=O)O)[C@H]1CC[C@H]2[C@@H]3C(=O)C[C@@H]4CC(=O)CC[C@]4(C)[C@H]3CC[C@]12C` [tert-Butylamine salt, tert-butylamine salt of 3,7-DKCA], 10.89 wt. %.

Values taken from US20250296949A1, “HIGH PURITY NON-ANIMAL DERIVED UDCA” (priority 2021, published 2025).
